Test results taken from PubChem BioAssay AID2060342 (Molecular Pharmacology Branch, DTP, NCI, 2025).
Where “and” joins values, the source holds several entries; their conditions need not be identical. Equal values may be shown once.

Test system: 171881-019-R-J1-PDC multicell spheroid viability
Assay: Anticancer human tumor 171881-019-R-J1-PDC patient-derived invasive breast carcinoma cell line growth inhibition [IpAb]
Conditions: for viability, T/C: stronger effect = lower value
How it was run: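 Combinations with ipatasertib or abemaciclib were tested on tumour spheroids holding HUVEC (25%) and MSC (15%) alongside 60% malignant cells. Top concentration was at or near clinical Cmax (10 microM if undefined), descending in half-log steps.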

[1] = curve of first compound, second compound 0.1 µM
[2] = curve of first compound, second compound 0.316 µM
[3] = curve of first compound, second compound 1 µM
[4] = second compound 0.1 µM, first compound 0.0316 µM
[5] = second compound 0.1 µM, first compound 0.1 µM
[6] = second compound 0.316 µM, first compound 0.0316 µM
[7] = second compound 0.316 µM, first compound 0.1 µM
[8] = second compound 1 µM, first compound 0.0316 µM
[9] = second compound 1 µM, first compound 0.1 µM
[10] = curve of first compound, second compound 3.16 µM
[11] = curve of first compound, second compound 10 µM
[12] = second compound 0.1 µM, first compound 0.316 µM
[13] = second compound 0.1 µM, first compound 1 µM
[14] = second compound 0.1 µM, first compound 3.16 µM
[15] = second compound 0.1 µM, first compound 10 µM
[16] = second compound 0.316 µM, first compound 0.316 µM
[17] = second compound 0.316 µM, first compound 1 µM
[18] = second compound 0.316 µM, first compound 3.16 µM
[19] = second compound 0.316 µM, first compound 10 µM
[20] = second compound 1 µM, first compound 0.316 µM
[21] = second compound 1 µM, first compound 1 µM
[22] = second compound 1 µM, first compound 3.16 µM
[23] = second compound 1 µM, first compound 10 µM
[24] = second compound 3.16 µM, first compound 0.0316 µM
[25] = second compound 3.16 µM, first compound 0.1 µM
[26] = second compound 3.16 µM, first compound 0.316 µM
[27] = second compound 3.16 µM, first compound 1 µM
[28] = second compound 3.16 µM, first compound 3.16 µM
[29] = second compound 3.16 µM, first compound 10 µM
[30] = second compound 10 µM, first compound 0.0316 µM
[31] = second compound 10 µM, first compound 0.1 µM
[32] = second compound 10 µM, first compound 0.316 µM
[33] = second compound 10 µM, first compound 1 µM
[34] = second compound 10 µM, first compound 3.16 µM
[35] = second compound 10 µM, first compound 10 µM
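Further: spheroids exposed to the agents for seven days before readout.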

Compound: CC(C)n1nc(-c2ccc3oc(N)nc3c2)c2c(N)ncnc21 + CCN1CCN(Cc2ccc(Nc3ncc(F)c(-c4cc(F)c5nc(C)n(C(C)C)c5c4)n3)nc2)CC1
- IC50 (curve of first compound, second compound 0.01 µM): 5.63 nM
- IC50 (curve of first compound, second compound 0.0316 µM): 5.98 nM
- IC50 [1]: 5.6 nM
- IC50 [2]: 6.25 nM
- IC50 [3]: 9.54 nM
- viability, T/C (second compound 0.01 µM, first compound 0.000316 µM): 99%
- viability, T/C (second compound 0.01 µM, first compound 0.001 µM): 102%
- viability, T/C (second compound 0.01 µM, first compound 0.00316 µM): 73.9%
- viability, T/C (second compound 0.01 µM, first compound 0.01 µM): 25.7%
- viability, T/C (second compound 0.01 µM, first compound 0.0316 µM): 4.34%
- viability, T/C (second compound 0.01 µM, first compound 0.1 µM): 2.21%
- viability, T/C (second compound 0.0316 µM, first compound 0.000316 µM): 97.9%
- viability, T/C (second compound 0.0316 µM, first compound 0.001 µM): 112%
- viability, T/C (second compound 0.0316 µM, first compound 0.00316 µM): 80.5%
- viability, T/C (second compound 0.0316 µM, first compound 0.01 µM): 24.8%
- viability, T/C (second compound 0.0316 µM, first compound 0.0316 µM): 5.1%
- viability, T/C (second compound 0.0316 µM, first compound 0.1 µM): 2.53%
- viability, T/C (second compound 0.1 µM, first compound 0.000316 µM): 114%
- viability, T/C (second compound 0.1 µM, first compound 0.001 µM): 103%
- viability, T/C (second compound 0.1 µM, first compound 0.00316 µM): 75.8%
- viability, T/C (second compound 0.1 µM, first compound 0.01 µM): 24.3%
- viability, T/C [4]: 5.52%
- viability, T/C [5]: 2.76%
- viability, T/C (second compound 0.316 µM, first compound 0.000316 µM): 131%
- viability, T/C (second compound 0.316 µM, first compound 0.001 µM): 106%
- viability, T/C (second compound 0.316 µM, first compound 0.00316 µM): 81.4%
- viability, T/C (second compound 0.316 µM, first compound 0.01 µM): 28.5%
- viability, T/C [6]: 9.75%
- viability, T/C [7]: 3.47%
- viability, T/C (second compound 1 µM, first compound 0.000316 µM): 140%
- viability, T/C (second compound 1 µM, first compound 0.001 µM): 125%
- viability, T/C (second compound 1 µM, first compound 0.00316 µM): 89.8%
- viability, T/C (second compound 1 µM, first compound 0.01 µM): 48.6%
- viability, T/C [8]: 21.4%
- viability, T/C [9]: 10.4%

Compound: CC1(C)CCC(CN2CCN(c3ccc(C(=O)NS(=O)(=O)c4ccc(NCC5CCOCC5)c([N+](=O)[O-])c4)c(Oc4cnc5[nH]ccc5c4)c3)CC2)=C(c2ccc(Cl)cc2)C1 + CC(C)NCC(C(=O)N1CCN(c2ncnc3c2C(C)CC3O)CC1)c1ccc(Cl)cc1
- IC50 [1]: 5670 nM
- IC50 [2]: 2840 nM
- IC50 [3]: < 31.6 nM
- IC50 [10]: < 31.6 nM
- IC50 [11]: < 31.6 nM
- viability, T/C [4]: 136%
- viability, T/C [5]: 114%
- viability, T/C [12]: 120%
- viability, T/C [13]: 107%
- viability, T/C [14]: 84.3%
- viability, T/C [15]: 18.7%
- viability, T/C [6]: 103%
- viability, T/C [7]: 96.8%
- viability, T/C [16]: 83.1%
- viability, T/C [17]: 71.3%
- viability, T/C [18]: 48.7%
- viability, T/C [19]: 14.8%
- viability, T/C [8]: 37.2%
- viability, T/C [9]: 31.9%
- viability, T/C [20]: 34.8%
- viability, T/C [21]: 32.3%
- viability, T/C [22]: 30.3%
- viability, T/C [23]: 12.3%
- viability, T/C [24]: 10.9%
- viability, T/C [25]: 11.4%
- viability, T/C [26]: 11.3%
- viability, T/C [27]: 11.5%
- viability, T/C [28]: 12.6%
- viability, T/C [29]: 5.33%
- viability, T/C [30]: 8.52%
- viability, T/C [31]: 5.8%
- viability, T/C [32]: 5.75%
- viability, T/C [33]: 6.5%
- viability, T/C [34]: 5.63%
- viability, T/C [35]: 2.85%

Compound: Cn1ncc(Cl)c1-c1cc(C(=O)NC(CN)Cc2cccc(F)c2)sc1Cl (configuration not stated) + CC(C)NCC(C(=O)N1CCN(c2ncnc3c2C(C)CC3O)CC1)c1ccc(Cl)cc1
- IC50 [1]: 161 nM
- IC50 [2]: 66.3 nM
- IC50 [3]: < 31.6 nM
- IC50 [10]: < 31.6 nM
- IC50 [11]: < 31.6 nM
- viability, T/C [4]: 86.5%
- viability, T/C [5]: 67.3%
- viability, T/C [12]: 25%
- viability, T/C [13]: 13.1%
- viability, T/C [14]: 4.31%
- viability, T/C [15]: 0.42%
- viability, T/C [6]: 59.8%
- viability, T/C [7]: 45.3%
- viability, T/C [16]: 22.6%
- viability, T/C [17]: 10.6%
- viability, T/C [18]: 3.79%
- viability, T/C [19]: 0.18%
- viability, T/C [8]: 23.8%
- viability, T/C [9]: 20.8%
- viability, T/C [20]: 13.8%
- viability, T/C [21]: 9.71%
- viability, T/C [22]: 3.91%
- viability, T/C [23]: 0.14%
- viability, T/C [24]: 10.8%
- viability, T/C [25]: 10.5%
- viability, T/C [26]: 9.15%
- viability, T/C [27]: 7.27%
- viability, T/C [28]: 3.38%
- viability, T/C [29]: 0.25%
- viability, T/C [30]: 5.35%
- viability, T/C [31]: 5.51%
- viability, T/C [32]: 5.12%
- viability, T/C [33]: 4.62%
- viability, T/C [34]: 2.7%
- viability, T/C [35]: 0.21%

Compound: Cn1ncc(Cl)c1-c1cc(C(=O)NC(CN)Cc2cccc(F)c2)sc1Cl (configuration not stated)
- viability, T/C (compound 0.0316 µM): 107% and 112%
- viability, T/C (compound 0.1 µM): 64.8% and 67.2%
- viability, T/C (compound 0.316 µM): 29.7% and 27.4%
- viability, T/C (compound 1 µM): 11.8% and 13.5%
- viability, T/C (compound 3.16 µM): 3.57% and 3.17%
- viability, T/C (compound 10 µM): 0.84% and 0.66%
- IC50 (curve of compound): 163 nM and 167 nM

Compound: C=CC(=O)N1CCN(c2nc(=O)n(-c3c(C)ccnc3C(C)C)c3nc(-c4c(O)cccc4F)c(F)cc23)C(C)C1 (configuration not stated) + CC(C)NCC(C(=O)N1CCN(c2ncnc3c2C(C)CC3O)CC1)c1ccc(Cl)cc1
- IC50 [1]: 5260 nM
- IC50 [2]: 1830 nM
- IC50 [3]: < 31.6 nM
- IC50 [10]: < 31.6 nM
- IC50 [11]: < 31.6 nM
- viability, T/C [4]: 102%
- viability, T/C [5]: 87.7%
- viability, T/C [12]: 90%
- viability, T/C [13]: 95.9%
- viability, T/C [14]: 74.2%
- viability, T/C [15]: 19.5%
- viability, T/C [6]: 74.1%
- viability, T/C [7]: 67%
- viability, T/C [16]: 69%
- viability, T/C [17]: 64.7%
- viability, T/C [18]: 36.8%
- viability, T/C [19]: 13.2%
- viability, T/C [8]: 24.6%
- viability, T/C [9]: 26.6%
- viability, T/C [20]: 25.9%
- viability, T/C [21]: 22.1%
- viability, T/C [22]: 17.3%
- viability, T/C [23]: 7.56%
- viability, T/C [24]: 10.2%
- viability, T/C [25]: 11.7%
- viability, T/C [26]: 10.2%
- viability, T/C [27]: 11.5%
- viability, T/C [28]: 8.09%
- viability, T/C [29]: 4.11%
- viability, T/C [30]: 5.17%
- viability, T/C [31]: 5.24%
- viability, T/C [32]: 6.38%
- viability, T/C [33]: 5.65%
- viability, T/C [34]: 5.64%
- viability, T/C [35]: 3.86%
